The results in this text go back to patent US9139532B2, “Pyrazolyl guanidine F1F0-atpase inhibitors and therapeutic uses thereof” (Lycera Corporation, priority 2010, dated 2015).

Read-outs that look alike come from different tables or passages of the source.

In test [1] the test system is Ramos cells. The test can be described thus: Cytotoxicity in Ramos cells. Type of test: cell-based. Particulars: cytotoxicity in Ramos cells, read-out: Ramos Cell EC50.
In test [2] the target is T1, F1F0-ATPase (Bos taurus, UniProt P13621).
T1 construct: from tissue
The test can be described thus: Inhibition of F1F0-ATPase activity in synthesizing ATP. It is filed as biochemical. Particulars: inhibition of ATP synthesis by F1F0-ATPase; read-out: ATP Syn IC50.

By EC50 is commonly meant the concentration giving half of the maximal effect. As a reminder, the IC50 is the concentration that inhibits the measured activity by half. As to `Cc1cc(N/C(=N\C(=O)c2ccc(F)c(F)c2)NCC(C)C)n[nH]1` [Compound A-191], the EC50 in test [1] is > 10 µM. In addition, in test [2], the IC50 is > 10 µM.

For `CC(C)(C)N/C(=N/C(=O)c1ccc(N2CCOCC2)nc1)Nc1cc(-c2ccc(F)cc2)[nH]n1` [Compound A-164], the EC50 in test [1] was < 10 µM. In addition, in test [2], the IC50 is < 10 µM.

With `COc1cccc(F)c1C(=O)/N=C(\Nc1cc(-c2ccc(F)cc2)n[nH]1)NC(C)(C)C` [Compound A-387], the EC50 in test [1] is > 10 µM. Also, the IC50 in test [2] was < 10 µM.

Regarding `O=C(/N=c1\[nH]c2cc(C(F)(F)F)nn2c(=O)n1Cc1ccc(F)cc1Cl)c1ccc(F)c(F)c1` [Compound A-567, (E)-N-(3-(2-chloro-4-fluorobenzyl)-4-oxo-7-(trifluoromethyl)-3,4-dihydropyrazolo[1,5-a][1,3,5]triazin-2(1H)-ylidene)-3,4-difluorobenzamide], the EC50 in test [1] (Homo sapiens) was < 10 µM. In addition, the IC50 in test [2] was < 10 µM.

For the molecule `CC(C)C(C)N/C(=N/C(=O)c1ccc(C(F)(F)F)cc1)Nc1cc(-c2cc(F)cc(F)c2)n[nH]1` (stereo not shown) [Compound A-295], the EC50 in test [1] was < 10 µM. For the same molecule, the 50% inhibitory concentration (IC50) in test [2] is < 10 µM.

Consider `O=C(/N=C(/NCc1ccc(F)cc1Cl)Nc1cc(C(F)(F)F)[nH]n1)c1ccc(C(F)F)cc1` [Compound A-83], for which the EC50 in test [1] (Homo sapiens) was < 10 µM. The IC50 in test [2] is < 10 µM.

Turning to `CCC(C)(C)N/C(=N/C(=O)c1ccc(Cl)cc1)Nc1cc(C(F)(F)F)[nH]n1` [Compound A-123], the EC50 in test [1] (Homo sapiens) was < 10 µM. In addition, in test [2], the IC50 is < 10 µM.

As to `CC(C)NC(=NC(=O)c1cccc(C#N)c1)Nc1cc(-c2ccc(F)cc2)n[nH]1` [Compound A-127], the concentration for a half-maximal effect (EC50) in test [1] (Homo sapiens) is > 10 µM. Moreover, in test [2], the IC50 is < 10 µM.

Consider `COc1cccc(C(=O)N=C(NCc2ccc(F)cc2Cl)Nc2cc(C(F)(F)F)n[nH]2)c1` [Compound A-542], for which, in test [1] (Homo sapiens), the EC50 was < 10 µM. In addition, in test [2], the IC50 was < 10 µM.

`CC(C)(C)N/C(=N/C(=O)c1cccc(C(F)(F)F)c1)Nc1cc(-c2cccc(Cl)c2)[nH]n1` [Compound A-128]: the EC50 in test [1] was < 10 µM. Besides, in test [2], the IC50 was < 10 µM.

Regarding `O=C(/N=C(\Nc1cc(C(F)(F)F)[nH]n1)NC1CCCCCC1)c1ccc(C(F)F)cc1` [Compound A-87], in test [1] (Homo sapiens), the EC50 is < 10 µM. The IC50 in test [2] was < 10 µM.

Regarding `CC(C)CNC(=NC(=O)c1ccc(Cl)cc1)Nc1cc(-c2cc(F)cc(F)c2)n[nH]1` [Compound A-233], the EC50 in test [1] (Homo sapiens) is < 10 µM. For the same molecule, the IC50 in test [2] is < 10 µM.

Consider `C[C@@H](N/C(=N\C(=O)c1ccc(F)c(F)c1)Nc1cc(C(F)(F)F)n[nH]1)C1CCCCC1` [Compound A-102], for which, in test [1] (Homo sapiens), the EC50 was < 10 µM. Also, the IC50 in test [2] was < 10 µM.

On to `O=C(/N=C(/NCc1ccc(F)c(Cl)c1)Nc1cc(C(F)(F)F)[nH]n1)c1ccc(Cl)cc1` [Compound A-31], for which the EC50 in test [1] (Homo sapiens) is < 10 µM. Also, in test [2], the IC50 is < 10 µM.

As to `Cc1ccc(C(=O)N=C(NCc2ccc(F)cc2Cl)Nc2cc(C(F)(F)F)n[nH]2)cc1F` [Compound A-553], the EC50 in test [1] (Homo sapiens) is < 10 µM. The IC50 in test [2] was < 10 µM.

In the case of `O=C(/N=C(/NCc1ccc(F)cc1Cl)Nc1cc(-c2ccc(F)cc2)[nH]n1)c1ccc(Cl)c(F)c1` [Compound A-142], the EC50 in test [1] was < 10 µM. Also, the IC50 in test [2] was < 10 µM.

In the case of `COc1cccc(C(=O)N=C(Nc2cc(-c3ccc(F)cc3)n[nH]2)NC(C)(C)C)c1` [Compound A-540], the EC50 in test [1] (Homo sapiens) was < 10 µM. Also, the IC50 in test [2] is < 10 µM.

`CC(C)OCCCN/C(=N/C(=O)c1cccc(C#N)c1)Nc1cc(-c2ccc(Cl)cc2)n[nH]1` [Compound A-301]: in test [1], the EC50 is < 10 µM. Further, the IC50 in test [2] was < 10 µM.

For the molecule `CC(C)(C)NC(=NC(=O)c1ccc(Cl)cc1)Nc1cc(-c2cc(F)cc(F)c2)n[nH]1` [Compound A-232], the EC50 in test [1] (Homo sapiens) was < 10 µM. In addition, in test [2], the IC50 is < 10 µM.

As to `Cc1cc(-c2cc(N/C(=N\C(=O)c3ccc(F)cc3)NC(C)(C)C)n[nH]2)ccc1F` [Compound A-418], the EC50 in test [1] was < 10 µM. In test [2], the IC50 is < 10 µM.
